Laboratory results as given in ChEMBL document CHEMBL5131385, “Novel piperazine based benzamide derivatives as potential anti-glioblastoma agents inhibiting cell proliferation and cell cycle progression” (Eur J Med Chem, 2022).
Activity calls are given as the source filed them. No cut-off for these calls is given here.

What was measured:
[1] = Induction of apoptosis in human U-87 MG cells assessed as late apoptotic cells at 0.30 uM incubated for 72 hrs by Annexin V-FITC/PI staining based flow cytometry method (reference value: 0.42 %); assay type: functional, U-87MG ATCC; conditions: dose 0.3 µM
U-251 [2] = assay: Downregulation of CDK6 gene expression in human U-251 cells at 0.075 to 1.2 uM measured after 72 hrs by western blot analysis; assay type: functional, cell-based; conditions: dose 0.075-1.2 µM
U-251 [3] = assay: Downregulation of pRb gene expression in human U-251 cells at 0.075 to 1.2 uM measured after 72 hrs by western blot analysis; assay type: functional, cell-based; conditions: dose 0.075-1.2 µM
U-87MG ATCC [4] = assay: Antiproliferative activity against human U-87 MG cells assessed as inhibition of cell proliferation and measured upto 72 hrs by CCK8 assay; assay type: functional, cell-based; conditions: TDE = time-dependent effect
[5] = Antitumor activity against human U-87 MG cells xenografted in BALB/c mouse assessed as tumor growth inhibition at 10 mg/kg,ip bid for 1 month; assay type: functional, U-87MG ATCC; conditions: 730 h, time 1 months, read-out: TGI
U-87MG ATCC [6] = assay: Antiinvasive activity against human U-87 MG cells assessed as inhibition of cell invasion at 0.125 to 0.50 uM and measured after 24 hrs by transwell invasion assay; assay type: functional, cell-based; conditions: dose 0.125-0.5 µM, DDE = dose-dependent effect
U-87MG ATCC [7] = assay: Antitumor activity against human U-87 MG cells xenografted in BALB/c mouse assessed as decrease in tumor weight at 10 mg/kg,ip bid for 1 month; assay type: functional, organism-based; conditions: time 1.0 months
U-251 [8] = assay: Induction of apoptosis in human U-251 cells assessed as enlargement of intracellular space at 0.375 to 6 uM measured after 72 hrs by Giemsa staining based microscopic analysis; assay type: functional, cell-based; conditions: dose 0.375-6 µM
U-87MG ATCC [9] = assay: Upregulation of p16 INK4a gene expression in human U-87 MG cells at 0.075 to 1.2 uM measured after 72 hrs by western blot analysis; assay type: functional, cell-based; conditions: dose 0.075-1.2 µM
[10] = Tmax in Sprague-Dawley rat brain at 100 mg/kg, ip and measured upto 240 mins by LC-MS analysis; assay type: ADME, organism-based
U-251 [11] = assay: Induction of apoptosis in human U-251 cells assessed as reduction in cell count at 0.375 to 6 uM measured after 72 hrs by Giemsa staining based microscopic analysis; assay type: functional; conditions: dose 0.375-6 µM
[12] = Acute toxicity in Kunming mouse assessed as survival at 600 mg/kg, ip measured after 14 days; assay type: organism-based; conditions: in vivo, 336 h, time 14 day
U-251 [13] = assay: Induction of apoptosis in human U-251 cells assessed as decrease in cell size at 0.375 to 6 uM measured after 72 hrs by Giemsa staining based microscopic analysis; assay type: functional; conditions: dose 0.375-6 µM
[14] = Antiproliferative activity against human U-87 MG cells assessed as inhibition of cell proliferation measured after 72 hrs by CCK8 assay; assay type: functional, cell-based, U-87MG ATCC
U-251 [15] = assay: Induction of apoptosis in human U-251 cells assessed as late apoptotic cells at 0.375 uM incubated for 72 hrs by Annexin V-FITC/PI staining based flow cytometry method (Rvb =1.31 %); assay type: functional
U-87MG ATCC [16] = assay: Downregulation of CDK4 gene expression in human U-87 MG cells at 0.075 to 1.2 uM measured after 72 hrs by western blot analysis; assay type: functional, cell-based; conditions: dose 0.075-1.2 µM
[17] = Permeability of compound across blood brain barrier in Sprague-Dawley rat at 100 mg/kg, ip and measured after 240 mins by LC-MS analysis; assay type: ADME, organism-based; conditions: read-out: BBR
U-87MG ATCC [18] = assay: Induction of apoptosis in human U-87 MG cells assessed as enlargement of intracellular space at 0.075 to 1.20 uM measured after 72 hrs by Giemsa staining based microscopic analysis; assay type: functional, cell-based; conditions: dose 0.075-1.2 µM
U-251 [19] = assay: Induction of apoptosis in human U-251 cells assessed as early apoptotic cells at 0.375 uM incubated for 72 hrs by Annexin V-FITC/PI staining based flow cytometry method (Rvb =1.96 %); assay type: functional
U-251 [20] = assay: Downregulation of cyclin D1 gene expression in human U-251 cells at 0.075 to 1.2 uM measured after 72 hrs by western blot analysis; assay type: functional, cell-based; conditions: dose 0.075-1.2 µM
U-251 [21] = assay: Induction of cell cycle arrest in human U-251 cells assessed as accumulation at G0/G1 phase at 0.75 to 3 uM and measured after 72 hrs by flow cytometry; assay type: functional, cell-based; conditions: dose 0.75-3 µM, DDE = dose-dependent effect
U-251 [22] = assay: Induction of apoptosis in human U-251 cells assessed as viable cells at 6 uM incubated for 72 hrs by Annexin V-FITC/PI staining based flow cytometry method (reference value: 96.22 %); assay type: functional; conditions: read-out: Activity
U-251 [23] = assay: Induction of cell cycle arrest in human U-251 cells assessed as decrease in accumulation at S phase at 0.75 to 3 uM measured after 72 hrs by flow cytometry; assay type: functional, cell-based; conditions: dose 0.75-3 µM, DDE = dose-dependent effect
[24] = Induction of apoptosis in human U-87 MG cells assessed as viable cells at 0.075 uM incubated for 72 hrs by Annexin V-FITC/PI staining based flow cytometry method (reference value: 96.84 %); assay type: functional, U-87MG ATCC; conditions: read-out: Activity
U-251 [25] = assay: Induction of apoptosis in human U-251 cells assessed as late apoptotic cells at 6 uM incubated for 72 hrs by Annexin V-FITC/PI staining based flow cytometry method (Rvb =1.31 %); assay type: functional
U-87MG ATCC [26] = assay: Antiproliferative activity against human U-87 MG cells assessed as reduction in cell proliferation at 0.125 to 0.5 uM and measured after 24 hrs by EdU incorporation based assay; assay type: functional; conditions: dose 0.125-0.5 µM, DDE = dose-dependent effect
[27] = Acute toxicity in Kunming mouse assessed as pathological changes in liver at 600 mg/kg, ip measured after 24 hrs by H and E staining analysis; assay type: organism-based; conditions: in vivo
U-87MG ATCC [28] = assay: Downregulation of cyclin D1 gene expression in human U-87 MG cells at 0.075 to 1.2 uM measured after 72 hrs by western blot analysis; assay type: functional, cell-based; conditions: dose 0.075-1.2 µM
[29] = Acute toxicity in Kunming mouse assessed as pathological changes in heart at 600 mg/kg, ip measured after 24 hrs by H and E staining analysis; assay type: organism-based; conditions: in vivo
U-87MG ATCC [30] = assay: Downregulation of CDK6 gene expression in human U-87 MG cells at 0.075 to 1.2 uM measured after 72 hrs by western blot analysis; assay type: functional, cell-based; conditions: dose 0.075-1.2 µM
U-87MG ATCC [31] = assay: Induction of apoptosis in human U-87 MG cells assessed as morphological changes at 0.075 to 1.20 uM measured after 72 hrs by Giemsa staining based microscopic analysis; assay type: functional, cell-based; conditions: dose 0.075-1.2 µM
U-251 [32] = assay: Antiproliferative activity against human U-251 cells assessed as reduction in cell proliferation at 0.075 to 1.2 uM and measured after 24 hrs by EdU incorporation based assay; assay type: functional; conditions: dose 0.075-1.2 µM, DDE = dose-dependent effect
U-251 [33] = assay: Downregulation of CDK4 gene expression in human U-251 cells at 0.075 to 1.2 uM measured after 72 hrs by western blot analysis; assay type: functional, cell-based; conditions: dose 0.075-1.2 µM
[34] = Cmax in Sprague-Dawley rat plasma at 100 mg/kg, ip and measured upto 240 mins by LC-MS analysis; assay type: ADME, organism-based; set-up: dose 100 mg/kg, time < 240 min, route ip
U-87MG ATCC [35] = assay: Antimigratory activity in human U-87 MG cells assessed as inhibition of cell migration by measuring wound closure at 0.125 to 0.50 uM and measured after 24 hrs by transwell migration assay; assay type: functional, cell-based; conditions: dose 0.125-0.5 µM, DDE = dose-dependent effect
U-251 [36] = assay: Induction of apoptosis in human U-251 cells assessed as morphological changes at 0.375 to 6 uM measured after 72 hrs by Giemsa staining based microscopic analysis; assay type: functional, cell-based; conditions: dose 0.375-6 µM

COCCN1CCN(c2ccc(F)cc2C(=O)Nc2ccc(CNC(=O)OCc3cccnc3)cc2)CC1
Activity [1]: 0.95%
Activity (U-251 [2]): Active
Activity (U-251 [3]): Active
Activity (U-87MG ATCC [4]): Tde
inhibition in vivo at 10 mg/kg [5]: 70.5%
Activity (U-87MG ATCC [6]): Dde
Activity (U-87MG ATCC [7]): Active
Activity (U-251 [8]): Active
Activity (U-87MG ATCC [9]): Active
Tmax [10]: 30 min
Activity (U-251 [11]): Active
Activity [12]: Non-Toxic
Activity (U-251 [13]): Active
IC50 [14]: 290 nM
Activity (U-251 [15]): 1.61%
Activity (U-87MG ATCC [16]): Active
Kp at 4 h [17]: 1.07
Activity (U-87MG ATCC [18]): Active
Activity (U-251 [19]): 1.9%
Activity (U-251 [20]): Active
Activity (U-251 [21]): Dde
viability at 6 µM (U-251 [22]): 86.8%
Activity (U-251 [23]): Dde
viability at 0.075 µM [24]: 96.5%
Activity (U-251 [25]): 5.75%
Activity (U-87MG ATCC [26]): Dde
Activity [27]: Non-Toxic
Activity (U-87MG ATCC [28]): Active
Activity [29]: Non-Toxic
Activity (U-87MG ATCC [30]): Active
Activity (U-87MG ATCC [31]): Active
Activity (U-251 [32]): Dde
Activity (U-251 [33]): Active
Cmax [34]: 71.7 µg/mL
Activity (U-87MG ATCC [35]): Dde
Activity (U-251 [36]): Active
